Structures are written as SMILES.

In a melting point compilation (Tetko et al.; mined from patent text by program, amines drawn as free bases though some values may be those of a salt) one finds melting point data, which are given here for 85 compounds.

`COc1ccc(C(=O)Nc2ccccc2)cc1NCc1ccc(C(C)(C)C)cc1` had a melting point of 195 to 197 °C.
The figure for `CC(=O)c1c(O)cccc1OCCCCCOc1ccc2cc(C(=O)O)ccc2c1` is 190 to 193 °C; for `COc1ccc2[nH]c(SCc3nccc(N4CCCCC4)c3Cl)nc2c1` it is 145 to 147 °C.
The figure for `COC(=O)c1ccc(CC(C)NCC(O)c2ccc(O)c(NS(C)(=O)=O)c2)cc1` (stereo not given) is 133 to 140 °C; for `O=C1N(Cc2cccnc2)c2ccccc2C12COc1cc(F)c(F)cc12` (stereo not given) it is 175 to 177 °C.
`Cc1ccnc2c1nc(-c1cccnc1N)n2-c1ccc(CC(=O)Nc2ccccc2)cc1` registered a melting point of 236 to 238 °C.
Then `CC1CC(=O)NN=C1c1ccc2[nH]c(CCCN3C(=O)c4ccccc4C3=O)nc2c1` (stereo not given), with 260 to 261 °C.
In the case of `Cc1cc(Cn2c(-c3ccccc3)nc(Cl)c2CC(=O)O)ccc1OCc1ccccc1`, the melting point was 177 to 178 °C.
The figure for `COC(=O)c1cc(C(=O)c2c(C)c(OC)c3c(OCc4ccccc4)cccn23)ccc1NC(=O)C(F)(F)F` is 214 °C; for `CN(C)Cc1ccc2c(c1)c(C1CCN(CCN3CCNC3=O)CC1)cn2-c1ccc(F)cc1` it is 166 to 174 °C.
The compound `O=C1CCNC(C(O)c2ccccc2)C1` (stereo not given) yielded a melting point of 124 to 126 °C.
Then `COc1ccc(C)cc1NC(=O)Nc1ccc(N2CCN(C(=O)Nc3ccc(N)cc3C(F)(F)F)CC2)cc1`, with 244 to 246 °C.
In turn, `O=C(Cl)c1ccc(CBr)cc1` came in with a melting point of 56 to 58 °C.
Then `C[C@@H]1CN(C(=O)N(c2ccccc2)c2ccccc2)[C@@H](C)CN1C(=O)N(c1ccccc1)c1ccccc1`, with 255 to 257 °C.
Then `CC(=O)OCc1nc2nc(O)cnc2c(=O)[nH]1`, with over 300 °C.
Then `CS(=O)(=O)c1ccc2cc(C(=O)O)ccc2c1`, with 301 to 304 °C; and `CCCCc1ncc(/C=C(\Cc2ccccc2)C(=O)O)n1Cc1c(F)cccc1Cl`, with 204 to 206 °C.
The compound `COC(=O)CCn1c(=O)n(CCN2CCN(c3ccc(F)cc3)CC2)c(=O)c2cscc21` had a melting point of 165 to 166 °C.
The figure for `COc1cc2[nH]c(=O)nc(C)c2c(OC)c1OC` is 229 to 230 °C; for `CCOC(=O)C(=O)Nc1cccc(NC(=O)C(=O)OCC)n1` it is 179 to 180 °C.
The figure for `COC(=O)Cn1c(CCc2ccccc2)ccc(NC(=O)OCc2ccccc2)c1=O` is 102 to 104 °C.
The figure for `COC(=O)C=Cc1ccc(N2CCN(CCC3CCN(C(=O)OC(C)(C)C)CC3)C2=O)cc1` is 148 to 149 °C.
As to `CC1(C)CCCN(CCNc2ccnc3cc(Cl)ccc23)C1`, the melting point fell in the range of 151 to 153 °C.
Then `CS(=O)(=O)Nc1ccc([N+](=O)[O-])cn1`, with 217 to 220 °C; and `NC(=O)c1cc(Cl)c(NC(=O)CCl)c(Cl)c1`, with 260 °C.
The figure for `CC(c1cc(F)cc(Br)c1O)c1cc(Cl)cc(C(C)c2cc(F)cc(Br)c2O)c1O` (stereo not given) is 136 °C; for `CC(C)[C@H](NC(=O)OCc1ccc2ccccc2n1)C(=O)N[C@@H](Cc1ccccc1)C[C@H](O)[C@H](Cc1ccccc1)NC(=O)OCc1cccnc1` it is 141 to 143 °C.
Then `COc1ccc(CNc2cc(OCc3ccccn3)ccc2C(=O)c2cc(OC)c(OC)c(OC)c2)cc1Cl`, with 142 to 144 °C.
As to `O=C1NC(=O)C2(N1)C(=O)N(Cc1ccc(Br)cc1F)c1c(Cl)cccc12` (stereo not given), the melting point was in the range of 240 to 241 °C.
Then `CO[C@]1(c2csc(Sc3ccc4c(c3)CC/C4=N\O)c2)CCO[C@@H]1C` (racemic), with 140 to 142 °C.
On to `CN1CCN(c2cccc3ccc(Nc4ncccc4N)cc23)CC1`, for which the melting point is 198 to 200 °C.
Then `Cc1csc2nc(-c3ccc(C(=O)O)cc3)nc(NCc3ccccc3)c12`, with 270 °C; and `Nc1nc(Nc2ccccc2)sc1C(=O)c1cccnc1`, with 227 to 228 °C; and `CC1(C)C(C(=O)O)C1C(Br)C(Br)(Br)Br` (stereo not given), with 150 °C.
The figure for `CCCOc1ccccc1-c1nc2nc(OCC)ncc2c(=O)[nH]1` is 196 to 198 °C; for `CC(C)(NC=O)c1cccc(C(F)(F)C(F)(F)c2ccccc2)c1` it is 90 to 95 °C; for `CC#CCn1nnc2cc3c(=O)n(C(C)Cn4ncnn4)nnc3cc2c1=O` (stereo not given) it is 132 to 134 °C.
Then `NCC1=C(CCC(=O)O)CC=CC1`, with 228 to 229 °C.
In the case of `COc1ccc(-n2nc(Cl)cc2-c2ccc(OCCO)cc2)cn1`, the melting point is 136 to 138 °C.
Then `COc1cc(N)c(Cl)cc1C(=O)NCC1CCN(CCCCOc2ccccc2)CC1`, with 71 to 73 °C; and `c1cncc(-c2cc(C3CCN(CCc4cccc5ccccc45)CC3)n[nH]2)c1`, with 171 to 173 °C; and `CO[C@@H](C(=O)N[C@H]1CC[C@@H](OC(=O)C2CCCCCC2)CNC1=O)[C@H](O)[C@@H](O)[C@H](O)/C=C/C(C)(C)C`, with 84 to 86 °C.
Then `CC(C)CC1(CCCCN2CCN(c3cccc4c3OCCO4)CC2)C(=O)Nc2ccccc21` (stereo not given), with 152 to 154 °C; and `CC(N)=CC(=O)OCC(C)(C)CN(C)Cc1ccccc1`, with 68 to 70 °C; and `Cc1ccc(Cl)c(Nc2ccccc2-c2nnc(NC#N)o2)c1Cl`, with over 215 °C.
The figure for `COc1ccc(C=Cc2nc3c(c(=O)n(C)c(=O)n3C)n2C)cc1OC` is 230 to 232 °C; for `Cc1ccc(-c2nnc(Cl)nc2-c2ccc(C)cc2)cc1` it is 126 to 130 °C.
For `COc1cc(NC(=O)N2CCOCN2)c(F)cc1Cl`, the melting point was 145 to 147 °C.
Compound `Cn1nc2c(N)nc3c(c2c1CCCCNC(=O)N1CCOCC1)CCCC3` came in with a melting point of 95 °C.
The figure for `CCC(CC(O)C(CC1CCCCC1)NC(=O)C(Cc1c[nH]cn1)NC(=O)C(Cc1ccccc1)C(=O)NO)C(C)C` (stereo not given) is 123 °C; for `COCC(=O)NCC(=O)N1CC1C#N` (stereo not given) it is 70 to 72 °C.
On to `O=C1Nc2cc(NC(=O)c3c[nH]cc(-c4cccc(Cl)c4)c3=O)ccc2/C1=C/c1ccc[nH]1`, for which the melting point is over 300 °C.
The figure for `O=C(Cc1ccc(Cl)cc1)OCCCOc1c(Cl)cc(OCC=C(Cl)Cl)cc1Cl` is 62.2 °C; for `Cc1nc(N)nc(N)c1-c1ccc(Cl)cc1Cl` it is 222 °C.
The figure for `Cc1noc(NS(=O)(=O)c2ccccc2-c2ccc(CC(C)C)cc2CNC=O)c1C` is 78 to 83 °C.
Then `CC1Cc2cc3c(cc2C(c2ccc([N+](=O)[O-])cc2)=NN1C1=NCCO1)OCO3` (stereo not given), with 194 to 196 °C.
`Cc1[nH]c(=O)n(-c2cc(C(=O)OC(C)C)c(Cl)cc2F)c(=O)c1[N+](=O)[O-]`: the melting point was 202 to 205 °C.
The figure for `Cc1ccc(C(O)(c2ccc3c(c2)c(-c2cccc(Cl)c2)nc2nnnn23)c2cncn2C)cc1` (stereo not given) is 165 °C.
In turn, `Cc1ccc(NC(=O)c2ccc(C(=O)Nc3ccccc3NC(=O)OC(C)(C)C)s2)cc1Nc1nc(-c2cccnc2)cs1` showed a melting point of 218 °C.
Regarding `O=C(OCc1ccccc1)C1CSC2C(N=Cc3ccc([N+](=O)[O-])cc3)C(=O)N12` (stereo not given), the melting point fell in the range of 95 to 96 °C.
With `CC(=O)CC1CN=C(c2cc3cccc(N(C)S(=O)(=O)c4cccs4)c3[nH]2)S1` (stereo not given), the melting point was in the range of 123 to 124 °C.
Then `CC(C)(CC(O)(C(=O)Nc1ccc2c(c1Br)COC2=O)C(F)(F)F)c1ccccc1` (stereo not given), with 187 to 194 °C; and `O=C(/C=C/c1ccc(C(=O)Nc2cccc(Nc3nc(-c4cccnc4)cs3)c2)s1)NOC1CCCCO1` (stereo not given), with 170 °C.
Then `O=C(Nc1ccc(Br)cc1)c1ccccc1[N+](=O)[O-]`, with 202 to 205 °C.
The figure for `C(=C\c1ccc(N2CCCC2)cc1)/CC1CCN(Cc2ccccc2)CC1` is 115 to 117 °C.
In turn, `CSC1C(OC(C)=O)C(COC(C)=O)OC1n1ccc(=O)[nH]c1=O` (stereo not given) came in with a melting point of 132 °C.
The figure for `Cc1sc(NS(=O)(=O)c2cccc(Cl)c2C)nc1CC(=O)N1CCOCC1` is 194 to 195 °C; for `C=C(C)C(=O)N1CCC[C@H]1C(=O)O` it is 102 to 104 °C.
Then `COC(=O)c1cc2cc(C(=O)c3cccc(C(C)C#N)c3)sc2s1` (stereo not given), with 163 °C.
Then `O=C(O)C1CCCC(NC(=O)C(CS)Cc2ccccc2)C1` (stereo not given), with 174 to 177 °C; and `COc1ccccc1N(CC1OCCO1)C(=O)c1ccc(CCl)cc1`, with 126 to 129 °C; and `Clc1ccc(-c2cc(C3CC3)n3nccc3n2)cc1`, with 137 to 138 °C.
As for `CCCCCCCCCCCCCCCCOC(=O)C=CC(=O)NC(N)=O`, the melting point amounted to 106 °C.
Compound `S=c1cc(-c2ccc(Cl)cc2)ss1` came in with a melting point of 135 °C.
`CC1(C)C(=O)N(c2ccc([N+](=O)[O-])c(C(F)(F)F)c2)C(=O)N1CCCCCN1C(=O)N(c2ccc([N+](=O)[O-])c(C(F)(F)F)c2)C(=O)C1(C)C` registered a melting point of 163 to 164 °C.
The compound `CCCc1c(S)ccc2c(=O)cc(C(=O)OC)oc12` displayed a melting point of 98 to 99 °C.
Then `COc1ccc(N=C(Cl)c2cccc([N+](=O)[O-])c2)cc1`, with 108 °C; and `C#CCOc1cc(-c2ncc(C(F)(F)F)cc2F)c(F)cc1Cl`, with 68 to 70 °C.
Consider `CNC(=S)NNCC1CC2c3cccc4[nH]cc(c34)CC2N(C)C1` (stereo not given), for which the melting point lay within 220 to 221 °C.
Compound `CC(=O)OC1OCC[C@@H]1NC(=O)[C@@H](NC(=O)OCc1ccccc1)C(C)C` (stereo not given in full) yielded a melting point of 173 to 174 °C.
`O=C(Oc1cc(=O)[nH]cc1Cl)c1ccccc1` yielded a melting point of 196 to 197 °C.
The figure for `CC(C)(C#N)c1cc(C=Cc2ccc(OS(N)(=O)=O)cc2)cc(Cn2cncn2)c1` is 151 to 152 °C; for `COc1cccc(OCCF)c1-c1ccc(C[C@H](NC(=O)c2c(Cl)cccc2Cl)C(=O)O)cc1` it is 206 to 207 °C; for `O=C(Cl)N1CC(Oc2cc(C(F)(F)F)ccc2Cl)C1` it is 40 to 45 °C.
The figure for `N#CCc1ccc(C2=CCCCC2)cc1` is 71 to 73 °C.
